Results taken from ChEMBL document CHEMBL4507296 (2021).
Calls of active or inactive are those of the source.

Experiments:
[1] = biological target: Transient receptor potential cation channel subfamily M member 8 (Homo sapiens, UniProt Q7Z2W7); experiment: Transients WS-12 activation
[2] = tested on: Tyrosine-protein kinase ABL1 (Homo sapiens), P00519 [F317L]; details: Compound concentration 1000.0 nM
[3] = biological target: Atypical kinase COQ8B, mitochondrial (Homo sapiens) (UniProt Q96D53); details: Compound concentration 1000.0 nM
[4] = biological target: Bone morphogenetic protein receptor type-1B (Homo sapiens) (UniProt O00238); details: Compound concentration 1000.0 nM
[5] = biological target: Cyclin-dependent kinase 7 (Homo sapiens) (UniProt P50613); details: Compound concentration 1000.0 nM
[6] = biological target: Cyclin-dependent kinase-like 1 (Homo sapiens) (UniProt Q00532); details: Compound concentration 1000.0 nM
[7] = biological target: Serine/threonine-protein kinase Chk2 (Homo sapiens) (UniProt O96017); details: Compound concentration 1000.0 nM
[8] = biological target: Macrophage colony-stimulating factor 1 receptor (Homo sapiens) (UniProt P07333); details: Compound concentration 1000.0 nM
Macrophage colony-stimulating factor 1 receptor (Homo sapiens), sequence (P07333 whole entry): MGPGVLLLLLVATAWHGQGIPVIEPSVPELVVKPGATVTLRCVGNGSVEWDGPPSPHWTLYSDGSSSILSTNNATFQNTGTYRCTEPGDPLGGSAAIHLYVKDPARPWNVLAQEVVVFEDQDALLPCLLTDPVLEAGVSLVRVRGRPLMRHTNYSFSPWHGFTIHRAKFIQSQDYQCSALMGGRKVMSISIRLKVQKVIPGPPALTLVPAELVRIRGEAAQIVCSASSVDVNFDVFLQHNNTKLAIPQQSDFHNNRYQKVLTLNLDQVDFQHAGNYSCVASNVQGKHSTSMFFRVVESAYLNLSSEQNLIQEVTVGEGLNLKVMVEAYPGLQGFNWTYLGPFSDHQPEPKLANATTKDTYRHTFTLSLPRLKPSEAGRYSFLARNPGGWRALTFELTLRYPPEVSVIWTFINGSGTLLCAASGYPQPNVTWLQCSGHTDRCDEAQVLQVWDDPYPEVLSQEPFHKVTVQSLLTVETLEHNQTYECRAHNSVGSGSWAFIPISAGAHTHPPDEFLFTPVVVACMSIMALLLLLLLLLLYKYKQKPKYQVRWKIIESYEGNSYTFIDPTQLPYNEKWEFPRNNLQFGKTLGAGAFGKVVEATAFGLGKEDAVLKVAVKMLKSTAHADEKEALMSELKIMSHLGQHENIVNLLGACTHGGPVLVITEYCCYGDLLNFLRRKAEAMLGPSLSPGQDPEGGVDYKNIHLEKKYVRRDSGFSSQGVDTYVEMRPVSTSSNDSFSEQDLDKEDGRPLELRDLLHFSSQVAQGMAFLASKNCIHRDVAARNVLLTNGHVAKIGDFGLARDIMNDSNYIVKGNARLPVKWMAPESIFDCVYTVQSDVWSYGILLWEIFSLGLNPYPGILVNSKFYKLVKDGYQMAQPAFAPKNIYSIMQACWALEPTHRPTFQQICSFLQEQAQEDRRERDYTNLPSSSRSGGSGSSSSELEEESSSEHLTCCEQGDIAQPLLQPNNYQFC

[9] = biological target: Megakaryocyte-associated tyrosine-protein kinase (Homo sapiens) (UniProt P42679); details: Compound concentration 1000.0 nM
[10] = biological target: Death-associated protein kinase 2 (Homo sapiens) (UniProt Q9UIK4); details: Compound concentration 1000.0 nM
[11] = biological target: Serine/threonine-protein kinase DCLK3 (Homo sapiens) (UniProt Q9C098); details: Compound concentration 1000.0 nM
[12] = biological target: Dual specificity tyrosine-phosphorylation-regulated kinase 1A (Homo sapiens) (UniProt Q13627); details: Compound concentration 1000.0 nM
[13] = tested on: Epidermal growth factor receptor (Homo sapiens), P00533 [G719S]; details: Compound concentration 1000.0 nM
[14] = tested on: Epidermal growth factor receptor (Homo sapiens), P00533 [UNDEFINED MUTATION]; details: Compound concentration 1000.0 nM
[15] = biological target: Ephrin type-A receptor 7 (Homo sapiens) (UniProt Q15375); details: Compound concentration 1000.0 nM
[16] = biological target: Receptor tyrosine-protein kinase erbB-3 (Homo sapiens) (UniProt P21860); details: Compound concentration 1000.0 nM
[17] = biological target: Tyrosine-protein kinase Fer (Homo sapiens) (UniProt P16591); details: Compound concentration 1000.0 nM
[18] = tested on: Receptor-type tyrosine-protein kinase FLT3 (Homo sapiens), P36888 [UNDEFINED MUTATION]; details: Compound concentration 1000.0 nM
[19] = tested on: Receptor-type tyrosine-protein kinase FLT3 (Homo sapiens), P36888 [K663Q]; details: Compound concentration 1000.0 nM
[20] = biological target: Rhodopsin kinase GRK7 (Homo sapiens) (UniProt Q8WTQ7); details: Compound concentration 1000.0 nM
Rhodopsin kinase GRK7 (Homo sapiens), sequence (Q8WTQ7 whole entry): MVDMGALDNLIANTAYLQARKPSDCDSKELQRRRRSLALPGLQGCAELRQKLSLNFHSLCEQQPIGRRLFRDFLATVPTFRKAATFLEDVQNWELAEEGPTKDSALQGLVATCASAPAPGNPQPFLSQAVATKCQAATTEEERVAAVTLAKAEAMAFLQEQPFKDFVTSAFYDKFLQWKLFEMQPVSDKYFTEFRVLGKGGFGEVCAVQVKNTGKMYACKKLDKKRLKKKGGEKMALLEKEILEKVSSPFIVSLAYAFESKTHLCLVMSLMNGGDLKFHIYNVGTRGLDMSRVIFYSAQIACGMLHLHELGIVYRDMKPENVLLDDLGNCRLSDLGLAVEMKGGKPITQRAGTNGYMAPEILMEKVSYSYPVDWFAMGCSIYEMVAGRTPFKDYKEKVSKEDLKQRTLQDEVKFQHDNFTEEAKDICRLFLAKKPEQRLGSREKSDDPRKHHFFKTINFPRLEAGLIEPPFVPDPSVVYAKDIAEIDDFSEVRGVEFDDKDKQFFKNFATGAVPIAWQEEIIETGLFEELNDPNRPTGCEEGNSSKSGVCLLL

[21] = biological target: Insulin-like growth factor 1 receptor (Homo sapiens) (UniProt P08069); details: Compound concentration 1000.0 nM
[22] = tested on: Mast/stem cell growth factor receptor Kit (Homo sapiens), P10721 [A829P]; details: Compound concentration 1000.0 nM
[23] = tested on: Mast/stem cell growth factor receptor Kit (Homo sapiens), P10721 [V559D]; details: Compound concentration 1000.0 nM
[24] = tested on: Mast/stem cell growth factor receptor Kit (Homo sapiens), P10721 [V559D,T670I]; details: Compound concentration 1000.0 nM
[25] = biological target: Maternal embryonic leucine zipper kinase (Homo sapiens) (UniProt Q14680); details: Compound concentration 1000.0 nM
[26] = tested on: Hepatocyte growth factor receptor (Homo sapiens), P08581 [Y1235D]; details: Compound concentration 1000.0 nM
[27] = biological target: Misshapen-like kinase 1 (Homo sapiens) (UniProt Q8N4C8); details: Compound concentration 1000.0 nM
[28] = biological target: MAP kinase-interacting serine/threonine-protein kinase 1 (Homo sapiens) (UniProt Q9BUB5); details: Compound concentration 1000.0 nM
[29] = biological target: Mitogen-activated protein kinase kinase kinase 9 (Homo sapiens) (UniProt P80192); details: Compound concentration 1000.0 nM
[30] = biological target: Serine/threonine-protein kinase 3 (Homo sapiens) (UniProt Q13188); details: Compound concentration 1000.0 nM
[31] = biological target: Serine/threonine-protein kinase PAK 3 (Homo sapiens) (UniProt O75914); details: Compound concentration 1000.0 nM
[32] = biological target: Cyclin-dependent kinase 2 homolog (Plasmodium falciparum (isolate 3D7)) (UniProt P61075); details: Compound concentration 1000.0 nM
[33] = tested on: Phosphatidylinositol 4,5-bisphosphate 3-kinase catalytic subunit alpha isoform (Homo sapiens), P42336 [E545K]; details: Compound concentration 1000.0 nM
[34] = biological target: Phosphatidylinositol 4-kinase beta (Homo sapiens) (UniProt Q9UBF8); details: Compound concentration 1000.0 nM
[35] = biological target: Phosphatidylinositol 5-phosphate 4-kinase type-2 gamma (Homo sapiens) (UniProt Q8TBX8); details: Compound concentration 1000.0 nM
Phosphatidylinositol 5-phosphate 4-kinase type-2 gamma (Homo sapiens), sequence (Q8TBX8 whole entry): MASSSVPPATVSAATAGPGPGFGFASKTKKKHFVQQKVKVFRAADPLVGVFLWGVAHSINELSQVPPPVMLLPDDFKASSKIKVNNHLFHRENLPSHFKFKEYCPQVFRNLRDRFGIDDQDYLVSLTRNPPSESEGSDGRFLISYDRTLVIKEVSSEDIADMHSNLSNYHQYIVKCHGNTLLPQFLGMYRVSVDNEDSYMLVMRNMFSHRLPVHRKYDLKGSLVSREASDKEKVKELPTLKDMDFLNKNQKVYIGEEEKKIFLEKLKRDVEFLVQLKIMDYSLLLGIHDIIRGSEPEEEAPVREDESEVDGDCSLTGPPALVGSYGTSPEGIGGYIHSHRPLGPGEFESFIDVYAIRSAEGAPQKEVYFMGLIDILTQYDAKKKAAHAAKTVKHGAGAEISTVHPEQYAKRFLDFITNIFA

[36] = biological target: Serine/threonine-protein kinase SIK3 (Homo sapiens) (UniProt Q9Y2K2); details: Compound concentration 1000.0 nM
[37] = tested on: Proto-oncogene tyrosine-protein kinase receptor Ret (Homo sapiens), P07949 [V804M]; details: Compound concentration 1000.0 nM
[38] = biological target: Uncharacterized serine/threonine-protein kinase SBK3 (Homo sapiens) (UniProt P0C264); details: Compound concentration 1000.0 nM
[39] = biological target: Tyrosine-protein kinase Srms (Homo sapiens) (UniProt Q9H3Y6); details: Compound concentration 1000.0 nM
[40] = biological target: Testis-specific serine/threonine-protein kinase 1 (Homo sapiens) (UniProt Q9BXA7); details: Compound concentration 1000.0 nM
[41] = biological target: 5-hydroxytryptamine receptor 2C (Homo sapiens) (UniProt P28335); details: Compound concentration 10.0 uM
5-hydroxytryptamine receptor 2C (Homo sapiens), sequence (P28335 whole entry): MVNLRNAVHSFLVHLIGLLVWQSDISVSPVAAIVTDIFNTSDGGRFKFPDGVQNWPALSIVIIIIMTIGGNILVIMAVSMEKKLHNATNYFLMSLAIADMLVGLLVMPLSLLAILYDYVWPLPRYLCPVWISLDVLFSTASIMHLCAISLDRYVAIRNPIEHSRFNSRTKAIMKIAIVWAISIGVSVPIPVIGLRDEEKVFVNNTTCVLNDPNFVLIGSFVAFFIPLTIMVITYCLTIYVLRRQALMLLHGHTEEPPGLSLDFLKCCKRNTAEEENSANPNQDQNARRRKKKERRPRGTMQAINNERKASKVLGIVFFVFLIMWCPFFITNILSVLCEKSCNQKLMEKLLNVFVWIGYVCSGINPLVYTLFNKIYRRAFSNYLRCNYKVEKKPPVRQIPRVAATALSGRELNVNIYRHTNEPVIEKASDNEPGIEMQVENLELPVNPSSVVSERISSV

[42] = biological target: 5-hydroxytryptamine receptor 7 (Homo sapiens) (UniProt P34969); details: Compound concentration 10.0 uM
[43] = biological target: Delta-type opioid receptor (Homo sapiens) (UniProt P41143); details: Compound concentration 10.0 uM
Delta-type opioid receptor (Homo sapiens), sequence (P41143 whole entry): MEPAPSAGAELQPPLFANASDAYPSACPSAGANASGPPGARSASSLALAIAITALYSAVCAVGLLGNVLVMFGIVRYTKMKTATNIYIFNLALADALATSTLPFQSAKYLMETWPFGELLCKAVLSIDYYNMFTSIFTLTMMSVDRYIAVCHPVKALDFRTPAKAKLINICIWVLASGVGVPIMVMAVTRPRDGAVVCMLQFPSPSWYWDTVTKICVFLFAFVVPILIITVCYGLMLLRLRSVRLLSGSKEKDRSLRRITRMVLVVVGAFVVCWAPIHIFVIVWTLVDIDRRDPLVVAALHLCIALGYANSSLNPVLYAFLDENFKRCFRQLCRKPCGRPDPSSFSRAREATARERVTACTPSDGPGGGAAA

[44] = biological target: Histamine H2 receptor (Homo sapiens) (UniProt P25021); details: Compound concentration 10.0 uM
[45] = biological target: Sigma non-opioid intracellular receptor 1 (Homo sapiens) (UniProt Q99720); details: Compound concentration 10.0 uM

Tyrosine-protein kinase ABL1 (Homo sapiens), P00519 [F317L], sequence (P00519 whole entry F317L): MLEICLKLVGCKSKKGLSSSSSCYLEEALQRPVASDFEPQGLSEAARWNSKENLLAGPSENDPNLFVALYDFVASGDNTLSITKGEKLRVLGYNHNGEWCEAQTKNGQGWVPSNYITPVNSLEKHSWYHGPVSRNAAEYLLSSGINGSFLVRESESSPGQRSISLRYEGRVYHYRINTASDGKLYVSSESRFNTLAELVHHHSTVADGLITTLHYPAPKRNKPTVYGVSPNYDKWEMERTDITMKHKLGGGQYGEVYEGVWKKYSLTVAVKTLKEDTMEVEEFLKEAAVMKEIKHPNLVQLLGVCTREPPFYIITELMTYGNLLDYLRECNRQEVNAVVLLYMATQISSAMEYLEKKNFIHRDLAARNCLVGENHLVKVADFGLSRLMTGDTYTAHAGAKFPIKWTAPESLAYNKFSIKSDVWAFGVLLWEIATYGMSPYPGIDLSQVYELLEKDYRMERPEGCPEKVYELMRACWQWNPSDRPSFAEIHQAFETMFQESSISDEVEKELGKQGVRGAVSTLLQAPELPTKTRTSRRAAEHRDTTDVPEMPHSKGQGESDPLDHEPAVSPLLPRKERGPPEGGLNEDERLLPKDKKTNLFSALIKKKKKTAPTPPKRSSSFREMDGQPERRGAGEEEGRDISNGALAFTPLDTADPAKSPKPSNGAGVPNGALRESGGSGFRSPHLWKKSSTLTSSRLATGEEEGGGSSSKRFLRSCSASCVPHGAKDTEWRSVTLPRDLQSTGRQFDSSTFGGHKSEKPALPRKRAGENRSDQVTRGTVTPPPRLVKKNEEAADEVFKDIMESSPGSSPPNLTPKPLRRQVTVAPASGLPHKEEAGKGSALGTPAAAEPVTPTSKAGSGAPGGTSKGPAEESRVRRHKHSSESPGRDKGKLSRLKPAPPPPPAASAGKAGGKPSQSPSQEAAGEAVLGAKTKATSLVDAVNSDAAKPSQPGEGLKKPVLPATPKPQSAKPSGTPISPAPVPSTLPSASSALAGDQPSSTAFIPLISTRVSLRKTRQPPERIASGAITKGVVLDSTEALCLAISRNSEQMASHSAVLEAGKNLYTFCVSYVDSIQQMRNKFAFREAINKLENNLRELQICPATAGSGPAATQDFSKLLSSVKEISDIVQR
Transient receptor potential cation channel subfamily M member 8, sequence (Q7Z2W7 whole entry): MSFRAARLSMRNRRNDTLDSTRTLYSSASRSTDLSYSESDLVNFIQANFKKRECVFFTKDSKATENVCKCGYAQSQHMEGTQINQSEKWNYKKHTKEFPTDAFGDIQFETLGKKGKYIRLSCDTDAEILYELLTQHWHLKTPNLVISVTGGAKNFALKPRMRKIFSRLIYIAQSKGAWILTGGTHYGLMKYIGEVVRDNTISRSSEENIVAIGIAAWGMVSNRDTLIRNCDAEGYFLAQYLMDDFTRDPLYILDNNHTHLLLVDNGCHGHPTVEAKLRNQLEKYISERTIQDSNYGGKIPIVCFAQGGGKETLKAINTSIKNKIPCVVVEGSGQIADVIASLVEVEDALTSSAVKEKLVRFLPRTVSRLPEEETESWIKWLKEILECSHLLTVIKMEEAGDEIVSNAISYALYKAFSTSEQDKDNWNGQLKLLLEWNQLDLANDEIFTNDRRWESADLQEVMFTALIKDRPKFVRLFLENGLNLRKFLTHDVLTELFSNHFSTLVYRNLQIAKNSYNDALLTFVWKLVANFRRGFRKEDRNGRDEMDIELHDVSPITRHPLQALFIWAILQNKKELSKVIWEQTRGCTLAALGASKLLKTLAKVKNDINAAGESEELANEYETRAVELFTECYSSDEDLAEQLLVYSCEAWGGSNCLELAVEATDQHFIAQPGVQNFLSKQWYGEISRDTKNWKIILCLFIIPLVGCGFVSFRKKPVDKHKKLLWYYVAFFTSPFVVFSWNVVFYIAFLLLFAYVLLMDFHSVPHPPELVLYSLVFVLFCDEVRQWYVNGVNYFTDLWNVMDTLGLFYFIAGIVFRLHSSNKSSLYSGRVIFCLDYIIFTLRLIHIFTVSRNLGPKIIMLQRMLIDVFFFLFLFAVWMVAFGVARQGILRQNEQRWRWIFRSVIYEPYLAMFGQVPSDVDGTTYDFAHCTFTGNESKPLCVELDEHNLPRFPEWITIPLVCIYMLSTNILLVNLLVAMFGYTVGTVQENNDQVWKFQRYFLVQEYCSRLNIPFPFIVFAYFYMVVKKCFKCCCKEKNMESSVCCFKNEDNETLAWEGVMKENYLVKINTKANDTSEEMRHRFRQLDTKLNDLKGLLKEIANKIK

C[C@H](c1ccc(F)cc1)N(Cc1cccc(C(=O)O)c1)C(=O)c1cnc2ccccc2c1 [PF-05105679]
active: IC50 [1] 29.6 nM
inactive: residual activity [2] 99% | residual activity [3] 86% | residual activity [4] 95% | residual activity [5] 100% | residual activity [6] 100% | residual activity [7] 91% | residual activity [8] 65% | residual activity [9] 79% | residual activity [10] 88% | residual activity [11] 100% | residual activity [12] 100% | residual activity [13] 100% | residual activity [14] 100% | residual activity [15] 80% | residual activity [16] 68% | residual activity [17] 100% | residual activity [18] 100% | residual activity [19] 100% | residual activity [20] 100% | residual activity [21] 100% | residual activity [22] 92% | residual activity [23] 92% | residual activity [24] 98% | residual activity [25] 100% | residual activity [26] 100% | residual activity [27] 100% | residual activity [28] 100% | residual activity [29] 100% | residual activity [30] 100% | residual activity [31] 96% | residual activity [32] 100% | residual activity [33] 100% | residual activity [34] 98% | residual activity [35] 81% | residual activity [36] 80% | residual activity [37] 100% | residual activity [38] 100% | residual activity [39] 100% | residual activity [40] 91% | inhibition [41] 6.54% | inhibition [42] -2.7% | inhibition [43] -1.72% | inhibition [44] -1.14% | inhibition [45] 16%
